Source: PubChem BioAssay (NCI)
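Assay format: 96-well plates, 48-hour exposure. GI50 marks 50% less growth. TGI marks complete inhibition of growth.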

Tests used:
Experiment in all cases: inhibition of tumour cell growth, NCI panel, 48 h
[1] = test system: 786-0 renal
[2] = test system: UACC-257 melanoma
[3] = test system: ACHN renal
[4] = test system: M14 melanoma
[5] = test system: DU-145 prostate
[6] = test system: TK-10 renal
[7] = test system: RXF 393 renal
[8] = test system: NCI/ADR-RES ovarian
[9] = test system: SK-OV-3 ovarian
[10] = test system: SN12C renal
[11] = test system: NCI-H226 lung
[12] = test system: MALME-3M melanoma
[13] = test system: HOP-92 NSCLC
[14] = test system: RPMI-8226 leukemia
[15] = test system: SNB-19 CNS
[16] = test system: KM12 colon
[17] = test system: MCF7 breast
[18] = test system: IGROV1 ovarian
[19] = test system: SK-MEL-5 melanoma
[20] = test system: HCC-2998 colon
[21] = test system: UACC-62 melanoma
[22] = test system: CAKI-1 renal
[23] = test system: K-562 leukemia
[24] = test system: OVCAR-4 ovarian
[25] = test system: A549 NSCLC
[26] = test system: HOP-62 NSCLC
[27] = test system: A498 renal
[28] = test system: COLO 205 colon
[29] = test system: SF-295 CNS
[30] = test system: PC-3 prostate
[31] = test system: UO-31 renal
[32] = test system: MDA-MB-231 breast
[33] = test system: LOX IMVI melanoma
[34] = test system: SF-268 CNS
[35] = test system: U251 CNS
[36] = test system: HS 578T breast
[37] = test system: HL-60(TB) leukemia
[38] = test system: OVCAR-8 ovarian
[39] = test system: NCI-H522 lung
[40] = test system: SNB-75 CNS
[41] = test system: HCT-15 colon
[42] = test system: MOLT-4 leukemia
[43] = test system: SK-MEL-28 melanoma
[44] = test system: CCRF-CEM leukemia
[45] = test system: NCI-H460 lung
[46] = test system: SK-MEL-2 melanoma
[47] = test system: EKVX NSCLC
[48] = test system: T-47D breast
[49] = test system: SW-620 colon
[50] = test system: SF-539 CNS
[51] = test system: OVCAR-5 ovarian
[52] = test system: HCT-116 colon
[53] = test system: HT29 colon
[54] = test system: SR leukemia
[55] = test system: BT-549 breast

## Cc1ccccc1N1CCN(C2=C(Cl)C(=O)c3ncccc3C2=O)CC1
[1]
  GI50: 1.71 µM
  TGI: 3.09 µM
[2]
  GI50: 1.98 µM
  TGI: 4.25 µM
[3]
  GI50: 1.85 µM
  TGI: 3.89 µM
[4]
  GI50: 2.2 µM
  TGI: 6.45 µM
[5]
  GI50: 3.8 µM
  TGI: > 100 µM
[6]
  GI50: 4.76 µM
  TGI: > 100 µM
[7]
  GI50: 1.74 µM
  TGI: 3.17 µM
[8]
  GI50: 2.51 µM
  TGI: 7.18 µM
[9]
  GI50: 37.2 µM
  TGI: > 100 µM
[10]
  GI50: 3.56 µM
  TGI: 78.9 µM
[11]
  GI50: 20.8 µM
  TGI: > 100 µM
[12]
  GI50: 2.03 µM
  TGI: 4.64 µM
[13]
  GI50: 1.36 µM
  TGI: 2.7 µM
[14]
  GI50: 2 µM
  TGI: 5.22 µM
[15]
  GI50: 30.3 µM
  TGI: > 100 µM
[16]
  GI50: 48.1 µM
  TGI: > 100 µM
[17]
  GI50: 1.46 µM
  TGI: 3.22 µM
[18]
  GI50: 1.97 µM
  TGI: 4.09 µM
[19]
  GI50: 4.98 µM
  TGI: 17.7 µM
[20]
  GI50: 3.33 µM
  TGI: 13.8 µM
[21]
  GI50: 3.92 µM
  TGI: 42.2 µM
[22]
  GI50: 2.78 µM
  TGI: > 100 µM
[23]
  GI50: 1.28 µM
  TGI: 4.08 µM
[24]
  GI50: 1.75 µM
  TGI: 3.23 µM
[25]
  GI50: 23.5 µM
  TGI: > 100 µM
[26]
  GI50: 35.1 µM
  TGI: > 100 µM
[27]
  GI50: > 100 µM
  TGI: > 100 µM
[28]
  GI50: 3.14 µM
  TGI: 10.8 µM
[29]
  GI50: 14.7 µM
  TGI: > 100 µM
[30]
  GI50: 1.63 µM
  TGI: 3.7 µM
[31]
  GI50: 1.49 µM
  TGI: 2.86 µM
[32]
  GI50: 1.71 µM
  TGI: 3.27 µM
[33]
  GI50: 1.65 µM
  TGI: 3.21 µM
[34]
  GI50: 23.7 µM
  TGI: > 100 µM
[35]
  GI50: 6 µM
  TGI: 25.6 µM
[36]
  GI50: 4.94 µM
  TGI: 85.3 µM
[37]
  GI50: 1.61 µM
  TGI: 4.05 µM
[38]
  GI50: 1.91 µM
  TGI: 4.35 µM
[39]
  GI50: 1.68 µM
  TGI: 3.31 µM
[40]
  GI50: 17.4 µM
  TGI: > 100 µM
[41]
  GI50: 1.69 µM
  TGI: 4.52 µM
[42]
  GI50: 1.78 µM
  TGI: 4.95 µM
[43]
  GI50: 2.19 µM
  TGI: 5.06 µM
[44]
  GI50: 1.73 µM
  TGI: 5.19 µM
[45]
  GI50: 6.68 µM
  TGI: 46.5 µM
[46]
  GI50: 2.75 µM
  TGI: 14.8 µM
[47]
  GI50: 1.68 µM
  TGI: 3.1 µM
[48]
  GI50: 1.9 µM
  TGI: 4.35 µM
[49]
  GI50: 1.48 µM
  TGI: 3.45 µM
[50]
  GI50: 1.8 µM
  TGI: 3.32 µM
[51]
  GI50: 6.89 µM
  TGI: 21.2 µM
[52]
  GI50: 1.56 µM
  TGI: 2.89 µM
[53]
  GI50: 5.33 µM
  TGI: > 100 µM
[54]
  GI50: 1 µM
  TGI: 5 µM
[55]
  GI50: 1.96 µM
  TGI: 3.41 µM
